Data on 34 molecules can be found in US20050009840A1 (SUGEN, INC., priority 2003, published 2005).

This experiment has as its target T1, Met kinase domain (GST fusion protein) (Homo sapiens, UniProt P08581).
T1 construct: Purified GST fusion protein containing the Met kinase domain
As to the kind of experiment: Met transphosphorylation assay (ELISA, poly(glu-tyr) substrate).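 For all read-outs here: Cell-free ELISA with plate-bound poly(Glu:Tyr 4:1) phosphorylated by GST-fused Met kinase domain plus ATP and Mn2+, phosphotyrosine detected by anti-phosphotyrosine antibody with HRP and ABTS read-out.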 The class given is biochemical. The conditions noted are these: for IC50: read-out: Met IC50. In general terms: In an ELISA, binding on a coated surface is turned into a signal by an enzyme label.

Setting [1] is: plain numbers in column Met IC50 (μM) of Table 2.

The structures appear in SMILES notation. Where two headings read alike, the source gives them in different places.

T1 sequence (P08581 1078-1345 limits assumed): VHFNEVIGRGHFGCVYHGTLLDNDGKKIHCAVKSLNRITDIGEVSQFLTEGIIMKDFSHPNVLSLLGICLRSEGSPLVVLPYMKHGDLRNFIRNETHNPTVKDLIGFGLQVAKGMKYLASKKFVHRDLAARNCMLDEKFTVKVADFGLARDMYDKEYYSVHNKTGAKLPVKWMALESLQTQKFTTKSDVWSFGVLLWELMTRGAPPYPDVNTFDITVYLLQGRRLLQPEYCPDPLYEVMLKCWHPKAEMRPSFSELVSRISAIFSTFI

Consider `Nc1ncc(-c2ccc(C(=O)NCCN3CCOCC3)cc2)cc1OCc1ccc(F)cc1Cl` [Example I-209, 4-[6-Amino-5-(2-chloro-4-fluoro-benzyloxy)-pyridin-3-yl]-N-(2-morpholin-4-yl-ethyl)-benzamide], for which, where the note is “Table 2”, the IC50 (in general, the midpoint of a concentration-inhibition curve) came out at 11 µM.

As to `Nc1ncc(-c2ccc[nH]2)cc1OCc1c(Cl)cccc1Cl` [Example I-7, 3-(2,6-Dichloro-benzyloxy)-5-(1H-pyrrol-2-yl)-pyridin-2-ylamine], the IC50 stood at 4.25 µM.

On to `CC(C)C(Oc1nc(-c2ccc(OCCN3CCOCC3)cc2)cnc1N)c1c(F)ccc(F)c1Cl` (stereo not shown) [II-69, 3-[1-(2-Chloro-3,6-difluoro-phenyl)-2-methyl-propoxy]-5-[4-(2-morpholin-4-yl-ethoxy)-phenyl]-pyrazin-2-ylamine], for which the IC50 is 10.6 µM.

For the molecule `CC(C)(C)c1ccc(COc2cc(-c3ccc(C(=O)NCCN4CCOCC4)cc3)cnc2N)cc1` [Example I-200, 4-[6-Amino-5-(4-tert-butyl-benzyloxy)-pyridin-3-yl]-N-(2-morpholin-4-yl-ethyl)-benzamide], the IC50 (Table 2) stood at 6.88 µM.

As for `Nc1ncc(-c2ccc(C(=O)N3CCC(N)CC3)cc2)cc1OCc1c(F)ccc(F)c1Cl` [Example I-214, {4-[6-Amino-5-(2-chloro-3,6-difluoro-benzyloxy)-pyridin-3-yl]-phenyl}-(4-amino-piperidin-1-yl)-methanone], the IC50 (Table 2) is 0.1 µM.

Regarding `Nc1ncc(-c2cccnc2)cc1OCc1c(Cl)cccc1Cl` [Example I-506, 5-(2,6-Dichloro-benzyloxy)-[3,3′]bipyridinyl-6-ylamine], the IC50 under setting [1] stood at 2.71 µM.

Consider `Nc1ncc(-c2ccccc2OCc2ccccc2)cc1OCc1c(Cl)cccc1Cl` [Example I-31, 5-(2-Benzyloxy-phenyl)-3-(2,6-dichloro-benzyloxy)-pyridin-2-ylamine], for which the IC50 is greater than 20 µM.

`CC(Oc1cc(-c2cccc(C(=O)N3CCC(N4CCCC4)CC3)c2)cnc1N)c1c(Cl)ccc(F)c1Cl` (stereo not shown) [Example I-322, (3-{6-Amino-5-[1-(2,6-dichloro-3-fluoro-phenyl)-ethoxy]-pyridin-3-yl}-phenyl)-(4-pyrrolidin-1-yl-piperidin-1-yl)-methanone]: the IC50 (Table 2) is 0.071 µM.

As for `CC(Oc1nc(-c2ccc(NC(=O)NCCO)cc2)cnc1N)c1c(Cl)ccc(F)c1Cl` (stereo not shown) [II-190, 1-(4-{5-Amino-6-[1-(2,6-dichloro-3-fluoro-phenyl)-ethoxy]-pyrazin-2-yl}-phenyl)-3-(2-hydroxy-ethyl)-urea], the IC50 was 0.28 µM.

Take `CC(Oc1cc(-c2cccc(C(=O)NCCN3CCOCC3)c2)cnc1N)c1c(Cl)ccc(F)c1Cl` (stereo not shown) [Example I-321, 3-{6-Amino-5-[1-(2,6-dichloro-3-fluoro-phenyl)-ethoxy]-pyridin-3-yl}-N-(2-morpholin-4-yl-ethyl)-benzamide]: the 50% inhibitory concentration (IC50) (Table 2) was 0.18 µM.

Take `CCCCOc1cnc(N)c(OC(C)c2c(F)ccc(F)c2Cl)c1` (stereo not shown) [Example I-532, 3-[1-(2-Chloro-3,6-difluoro-phenyl)-ethoxy]-5-butoxy-pyridin-2-ylamine]: the IC50 under setting [1] worked out at 1.94 µM.

Regarding `Nc1ncc(-c2cccc(C(=O)N3CCC(N4CCCC4)CC3)c2)nc1OCc1cccc(F)c1C(F)(F)F` [II-122, {3-[5-Amino-6-(3-fluoro-2-trifluoromethyl-benzyloxy):pyrazin-2-yl]-phenyl)(4-pyrrolidin-1-yl-piperidin-1-yl)-methanone], the IC50 was determined as 0.19 µM.

With `CC(Oc1cc(-c2ccc(C(=O)NCCCN3CCCC3)cc2)cnc1N)c1c(F)ccc(F)c1Cl` (stereo not shown) [Example I-336, 4-{6-Amino-5-[1-(2-chloro-3,6-difluoro-phenyl)-ethoxy]-pyridin-3-yl}-N-(3-pyrrolidin-1-yl-propyl)-benzamide], the IC50 (Table 2) was determined as 0.09 µM.

With `CC(=O)N1CCN(CCS(=O)(=O)Nc2ccc(-c3cnc(N)c(OCc4c(F)ccc(F)c4Cl)c3)cc2)CC1` [Example I-250, 2-(4-Acetyl-piperazin-1-yl)-ethanesulfonic acid {4-[6-amino-5-(2-chloro-3,6-difluoro-benzyloxy)-pyridin-3-yl]-phenyl}-amide], the IC50 (Table 2) is 0.42 µM.

For `Nc1ncc(Br)cc1OCc1c(F)cccc1F` [I(c)], where the note is “at 20 μM, read-out: Met inhibition (printed in the Met IC50 column)”, the inhibition – broadly, the drop in the measured response relative to a control, in per cent – at 20 µM is 40%.

Regarding `CC(Oc1nc(-c2ccc(C(=O)NCCN3CCOCC3)cc2)cnc1N)c1c(Cl)ccc(F)c1Cl` (stereo not shown) [II-153, 4-{5-Amino-6-[1-(2,6-dichloro-3-fluoro-phenyl)-ethoxy]-pyrazin-2-yl}-N-(2-morpholin-4-yl-ethyl)-benzamide], the IC50 is 0.102 µM.

Take `CC(=O)N1CCN(CCNC(=O)c2cccc(-c3cnc(N)c(OC(C)c4c(Cl)ccc(F)c4Cl)c3)c2)CC1` (stereo not shown) [Example I-315, N-[2-(4-Acetyl-piperazin-1-yl)-ethyl]-3-{6-amino-5-[1-(2,6-dichloro-3-fluoro-phenyl)-ethoxy]-pyridin-3-yl}-benzamide]: under “Table 2”, the IC50 came to 0.069 µM.

Turning to `Nc1ncc(-c2ccc(C(=O)NCCCN3CCOCC3)cc2)cc1OCc1ccccc1C(F)(F)F` [Example I-192, 4-[6-Amino-5-(2-trifluoromethyl-benzyloxy)-pyridin-3-yl]-N-(3-morpholin-4-yl-propyl)-benzamide], under “Table 2”, the IC50 stood at 3.8 µM.

Regarding `CC(Oc1cc(-c2ccc(NC(=O)N3CCN(C)CC3)cc2)cnc1N)c1c(Cl)ccc(F)c1Cl` (stereo not shown) [Example I-371, 4-Methyl-piperazine-1-carboxylic acid (4-{6-amino-5-[1-(2,6-dichloro-3-fluoro-phenyl)-ethoxy]-pyridin-3-yl}-phenyl)-amide], the IC50 under setting [1] amounted to 0.057 µM.

Turning to `CN(C)[C@H]1CCN(C(=O)c2ccc(-c3cnc(N)c(OCc4c(F)ccc(F)c4Cl)c3)cc2)C1` [Example I-217, {4-[6-Amino-5-(2-chloro-3,6-difluoro-benzyloxy)-pyridin-3-yl]-phenyl}-[(3S)-3-dimethylamino-pyrrolidin-1-yl]-methanone], the IC50 (Table 2) came to 0.12 µM.

Regarding `CC(Oc1nc(-c2ccc(C(=O)N3C[C@@H](C)N[C@@H](C)C3)cc2)cnc1N)c1c(Cl)ccc(F)c1Cl` (stereo partly drawn) [II-155, (4-{5-Amino-6-[1-(2,6-dichloro-3-fluoro-phenyl)-ethoxy]-pyrazin-2-yl}-phenyl)-((3R,5S)-3,5-dimethyl-piperazin-1-yl)-methanone], the IC50 worked out at 0.095 µM.

Consider `Nc1ncc(-c2cccc(F)c2)cc1OCc1c(Cl)cccc1Cl` [Example I-11, 3-(2,6-Dichloro-benzyloxy)-5-(3-fluoro-phenyl)-pyridin-2-ylamine], for which the IC50 stood at 13.8 µM.

As to `CC(Oc1cc(C#CCNC(=O)CN2CCCC2)cnc1N)c1c(Cl)ccc(F)c1Cl` (stereo not shown) [Example I-426, N-(3-{8-Amino-5-[1-(2,6-dichloro-3-fluoro-phenyl)-ethoxy]-pyridin-3-yl}-prop-2-ynyl)-2-pyrrolidin-1-yl-acetamide], under setting [1], the IC50 is 0.0091 µM.

With `CC(Oc1nc(-c2ccc(C(=O)N3CC[C@@H](N)C3)cc2)cnc1N)c1c(F)ccc(F)c1Cl` (stereo partly drawn) [II-115, (4-{5-Amino-6-[1-(2-chloro-3,6-difluoro-phenyl)-ethoxy]-pyrazin-2-yl}-phenyl)-((R)-3-amino-pyrrolidin-1-yl)-methanone], the IC50 turned out to be 0.078 µM.

In the case of `Nc1ncc(-c2ccc(C(=O)N3CCC[C@@H]3CN3CCCC3)cc2)cc1OCc1c(F)cccc1C(F)(F)F` [Example I-112, {4-[6-Amino-5-(2-fluoro-2-trifluoromethyl-benzyloxy)-pyridin-3-yl]-phenyl}-[(2R)-2-pyrrolidin-1-ylmethyl-pyrrolidin-1-yl]-methanone], the IC50 came to 0.15 µM.

Take `CC(=O)N1CCN(C(=O)c2ccc(-c3cnc(N)c(OCc4ccccc4Cl)c3)cc2)CC1` [Example I-157, 1-(4-{4-[6-Amino-5-(2-chloro-benzyloxy)-pyridin-3-yl]-benzoyl}-piperazin-1-yl)-ethanone]: the IC50 was 3.8 µM.

Turning to `CC(Oc1nc(-c2ccc(OCCN3CCOCC3)cc2)cnc1N)c1c(Cl)ccc(F)c1Cl` (stereo not shown) [II-71, 3-[1-(2,6-Dichloro-3-fluoro-phenyl)-ethoxy]-5-[4-(2-morpholin-4-yl-ethoxy)-phenyl]-pyrazin-2-ylamine; compound with trifluoro-acetic acid], the IC50 came to 0.3 µM.

As to `Nc1ccc(-c2cnc(N)c(OCc3ccc(Cl)cc3)c2)cn1` [Example I-499, 5-(4-Chloro-benzyloxy)-[3.3═]bipyridinyl-6,6′-diamine], under setting [1], the IC50 was greater than 20 µM.

Regarding `Nc1ncc(Br)nc1OCc1c(F)ccc(F)c1Cl` [II(b), 5-Bromo-3-(2-chloro-3,6-difluoro-benzyloxy)-pyrazin-2-ylamine], the IC50 is greater than 20 µM.

With `CC(Oc1cc(-c2ccc(OCCN3CCOCC3)cc2)cnc1N)c1c(Cl)ccc(F)c1Cl` (stereo not shown) [Example I-357, 3-[1-(2,6-Dichloro-3-fluoro-phenyl)-ethoxy]-5-[4-(2-morpholin-4-yl-ethoxy)-phenyl]-pyridin-2-ylamine], where the note is “Table 2”, the IC50 is 0.13 µM.

As to `CC(Oc1nc(-c2ccc(C(=O)N3CCN(C)CC3)cn2)cnc1N)c1c(Cl)ccc(F)c1Cl` (stereo not shown) [II-202, (6-{5-Amino-6-[1-(2,6-dichloro-3-fluoro-phenyl)-ethoxy]-pyrazin-2-yl}-pyridin-3-yl)-(4-methyl-piperazin-1-yl)-methanone], the IC50 was 0.15 µM.

In the case of `CC(C)(C)OC(=O)N[C@H]1CCN(C(=O)c2cc3cc(-c4cnc(N)c(OCc5c(Cl)cccc5Cl)c4)ccc3[nH]2)C1` [Example I-83, (1-{5-[6-Amino-5-(2,6-dichloro-benzyloxy)-pyridin-3-yl]-1H-indole-2-carbonyl}-- (3S)-pyrrlidin-3-yl)-carbamic acid tert-butyl ester], the IC50 was determined as 5 µM.

For the molecule `Nc1ncc(-c2ccccn2)cc1OCc1c(F)ccc(F)c1Cl` [Example I-500, 5′-(2-Chloro-3,6-difluoro-benzyloxy)-[2,3′]bipyridinyl-6′-ylamine], under setting [1], the IC50 amounted to 1.8 µM.

Take `Nc1ncc(-c2cccc(C(=O)N3CCC(N)CC3)c2)cc1OCc1c(F)ccc(F)c1Cl` [Example I-228, {3-[6-Amino-5-(2-chloro-3,6-difluoro-benzyloxy)-pyridin-3-yl]-phenyl}-(4-amino-piperidin-1-yl)-methanone]: the IC50 (Table 2) worked out at 0.23 µM.
